{"source": "ChEMBL document CHEMBL1201862", "about": "“PubChem BioAssay data set” (2004)", "experiment_in_all_cases": "DTP human tumour cell line panel, 48 h", "key": {"SF-539": {"test_system": "SF-539"}, "CAKI-1": {"test_system": "CAKI-1"}, "HL-60": {"test_system": "HL-60"}, "HOP-62": {"test_system": "HOP-62"}, "SNB-19": {"test_system": "SNB-19"}, "HT-29": {"test_system": "HT-29"}, "UO-31": {"test_system": "UO-31"}, "OVCAR-4": {"test_system": "OVCAR-4"}, "BT-549": {"test_system": "BT-549"}, "SF-295": {"test_system": "SF-295"}, "NCI-H23": {"test_system": "NCI-H23"}, "RPMI-8226": {"test_system": "RPMI-8226"}, "IGROV-1": {"test_system": "IGROV-1"}, "SNB-75": {"test_system": "SNB-75"}, "SN12C": {"test_system": "SN12C"}, "M14": {"test_system": "M14"}, "Malme-3M": {"test_system": "Malme-3M"}, "K562": {"test_system": "K562"}, "NCI-H522": {"test_system": "NCI-H522"}, "SK-OV-3": {"test_system": "SK-OV-3"}}, "note": "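Following 48 hours of exposure in 96-well plates, responses at five concentrations were used to interpolate endpoints linearly. Here, GI50 denotes the concentration required for 50% inhibition of growth.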 Active and inactive are the calls of the source. Rule as the data show it: active = GI50 up to about 1.1 µM and inactive = higher.", "data": [{"smiles": "Cc1ccc(C)c2c1C/C(=C\\c1ccccc1C(=O)O)C2=O", "values": [{"measurement": "GI50", "setting": "SF-539", "result": "18.5 µM (inactive)"}, {"measurement": "GI50", "setting": "CAKI-1", "result": "> 100 µM (inactive)"}, {"measurement": "GI50", "setting": "HL-60", "result": "40.9 µM (inactive)"}, {"measurement": "GI50", "setting": "HOP-62", "result": "> 100 µM (inactive)"}, {"measurement": "GI50", "setting": "SNB-19", "result": "81.3 µM (inactive)"}, {"measurement": "GI50", "setting": "HT-29", "result": "> 100 µM (inactive)"}, {"measurement": "GI50", "setting": "UO-31", "result": "> 100 µM (inactive)"}, {"measurement": "GI50", "setting": "OVCAR-4", "result": "62.7 µM (inactive)"}, {"measurement": "GI50", "setting": "BT-549", "result": "> 100 µM (inactive)"}, {"measurement": "GI50", "setting": "SF-295", "result": "> 100 µM (inactive)"}, {"measurement": "GI50", "setting": "NCI-H23", "result": "> 100 µM (inactive)"}, {"measurement": "GI50", "setting": "RPMI-8226", "result": "27.7 µM (inactive)"}, {"measurement": "GI50", "setting": "IGROV-1", "result": "> 100 µM (inactive)"}, {"measurement": "GI50", "setting": "SNB-75", "result": "> 100 µM (inactive)"}, {"measurement": "GI50", "setting": "SN12C", "result": "> 100 µM (inactive)"}, {"measurement": "GI50", "setting": "M14", "result": "> 100 µM (inactive)"}, {"measurement": "GI50", "setting": "Malme-3M", "result": "> 100 µM (inactive)"}, {"measurement": "GI50", "setting": "K562", "result": "87.7 µM (inactive)"}, {"measurement": "GI50", "setting": "NCI-H522", "result": "> 100 µM (inactive)"}]}, {"smiles": "COC(=O)c1sc(=S)sc1SCc1cccc(CSc2sc(=S)sc2C(=O)OC)c1", "values": [{"measurement": "GI50", "setting": "SF-539", "result": "24.6 µM (inactive)"}, {"measurement": "GI50", "setting": "CAKI-1", "result": "34.5 µM (inactive)"}, {"measurement": "GI50", "setting": "HOP-62", "result": "16.1 µM (inactive)"}, {"measurement": "GI50", "setting": "SNB-19", "result": "26.8 µM (inactive)"}, {"measurement": "GI50", "setting": "SK-OV-3", "result": "19.6 µM (inactive)"}, {"measurement": "GI50", "setting": "HT-29", "result": "> 100 µM (inactive)"}, {"measurement": "GI50", "setting": "UO-31", "result": "> 100 µM (inactive)"}, {"measurement": "GI50", "setting": "OVCAR-4", "result": "> 100 µM (inactive)"}, {"measurement": "GI50", "setting": "BT-549", "result": "26.9 µM (inactive)"}, {"measurement": "GI50", "setting": "SF-295", "result": "26 µM (inactive)"}, {"measurement": "GI50", "setting": "NCI-H23", "result": "27.9 µM (inactive)"}, {"measurement": "GI50", "setting": "RPMI-8226", "result": "> 100 µM (inactive)"}, {"measurement": "GI50", "setting": "IGROV-1", "result": "60.7 µM (inactive)"}, {"measurement": "GI50", "setting": "SNB-75", "result": "11.6 µM (inactive)"}, {"measurement": "GI50", "setting": "SN12C", "result": "> 100 µM (inactive)"}, {"measurement": "GI50", "setting": "M14", "result": "71.3 µM (inactive)"}, {"measurement": "GI50", "setting": "Malme-3M", "result": "> 100 µM (inactive)"}, {"measurement": "GI50", "setting": "K562", "result": "79.8 µM (inactive)"}, {"measurement": "GI50", "setting": "NCI-H522", "result": "> 100 µM (inactive)"}]}, {"smiles": "Cc1ccc(NC(=S)N/N=C(/c2ccccc2)c2ccccn2)cc1", "values": [{"measurement": "GI50", "setting": "SF-539", "result": "0.729 µM (active)"}, {"measurement": "GI50", "setting": "CAKI-1", "result": "0.059 µM (active)"}, {"measurement": "GI50", "setting": "HL-60", "result": "< 0.0121 µM (active)"}, {"measurement": "GI50", "setting": "HOP-62", "result": "0.16 µM (active)"}, {"measurement": "GI50", "setting": "SNB-19", "result": "3.27 µM (inactive)"}, {"measurement": "GI50", "setting": "SK-OV-3", "result": "0.0308 µM (active)"}, {"measurement": "GI50", "setting": "HT-29", "result": "0.0541 µM (active)"}, {"measurement": "GI50", "setting": "UO-31", "result": "0.177 µM (active)"}, {"measurement": "GI50", "setting": "OVCAR-4", "result": "0.241 µM (active)"}, {"measurement": "GI50", "setting": "BT-549", "result": "4.25 µM (inactive)"}, {"measurement": "GI50", "setting": "SF-295", "result": "0.212 µM (active)"}, {"measurement": "GI50", "setting": "NCI-H23", "result": "< 0.0187 µM (active)"}, {"measurement": "GI50", "setting": "RPMI-8226", "result": "< 0.0161 µM (active)"}, {"measurement": "GI50", "setting": "IGROV-1", "result": "< 0.0173 µM (active)"}, {"measurement": "GI50", "setting": "SNB-75", "result": "0.343 µM (active)"}, {"measurement": "GI50", "setting": "SN12C", "result": "0.121 µM (active)"}, {"measurement": "GI50", "setting": "M14", "result": "< 0.01 µM (active)"}, {"measurement": "GI50", "setting": "K562", "result": "< 0.0117 µM (active)"}, {"measurement": "GI50", "setting": "NCI-H522", "result": "1.31 µM (inactive)"}]}, {"smiles": "CSc1ncc2c(C#N)c3[nH]c4ccccc4n3c(=O)c2n1", "values": [{"measurement": "GI50", "setting": "SF-539", "result": "17.3 µM (inactive)"}, {"measurement": "GI50", "setting": "CAKI-1", "result": "22.8 µM (inactive)"}, {"measurement": "GI50", "setting": "HL-60", "result": "7.29 µM (inactive)"}, {"measurement": "GI50", "setting": "HOP-62", "result": "19.8 µM (inactive)"}, {"measurement": "GI50", "setting": "SNB-19", "result": "16.9 µM (inactive)"}, {"measurement": "GI50", "setting": "SK-OV-3", "result": "29.4 µM (inactive)"}, {"measurement": "GI50", "setting": "UO-31", "result": "8.13 µM (inactive)"}, {"measurement": "GI50", "setting": "OVCAR-4", "result": "6.84 µM (inactive)"}, {"measurement": "GI50", "setting": "BT-549", "result": "20.6 µM (inactive)"}, {"measurement": "GI50", "setting": "SF-295", "result": "9.84 µM (inactive)"}, {"measurement": "GI50", "setting": "NCI-H23", "result": "14.8 µM (inactive)"}, {"measurement": "GI50", "setting": "RPMI-8226", "result": "1.88 µM (inactive)"}, {"measurement": "GI50", "setting": "IGROV-1", "result": "18.1 µM (inactive)"}, {"measurement": "GI50", "setting": "SNB-75", "result": "44.7 µM (inactive)"}, {"measurement": "GI50", "setting": "SN12C", "result": "16 µM (inactive)"}, {"measurement": "GI50", "setting": "M14", "result": "16.7 µM (inactive)"}, {"measurement": "GI50", "setting": "K562", "result": "5.18 µM (inactive)"}, {"measurement": "GI50", "setting": "NCI-H522", "result": "7.52 µM (inactive)"}]}, {"smiles": "Nc1ccc2c(c1)NCCN2", "values": [{"measurement": "GI50", "setting": "SF-539", "result": "14.7 µM (inactive)"}, {"measurement": "GI50", "setting": "CAKI-1", "result": "12.9 µM (inactive)"}, {"measurement": "GI50", "setting": "HL-60", "result": "9.71 µM (inactive)"}, {"measurement": "GI50", "setting": "HOP-62", "result": "> 100 µM (inactive)"}, {"measurement": "GI50", "setting": "SNB-19", "result": "9.84 µM (inactive)"}, {"measurement": "GI50", "setting": "HT-29", "result": "42.3 µM (inactive)"}, {"measurement": "GI50", "setting": "UO-31", "result": "17.4 µM (inactive)"}, {"measurement": "GI50", "setting": "OVCAR-4", "result": "> 100 µM (inactive)"}, {"measurement": "GI50", "setting": "BT-549", "result": "37.2 µM (inactive)"}, {"measurement": "GI50", "setting": "SF-295", "result": "64.1 µM (inactive)"}, {"measurement": "GI50", "setting": "NCI-H23", "result": "78.9 µM (inactive)"}, {"measurement": "GI50", "setting": "RPMI-8226", "result": "70.1 µM (inactive)"}, {"measurement": "GI50", "setting": "IGROV-1", "result": "8.36 µM (inactive)"}, {"measurement": "GI50", "setting": "SNB-75", "result": "> 100 µM (inactive)"}, {"measurement": "GI50", "setting": "SN12C", "result": "48.8 µM (inactive)"}, {"measurement": "GI50", "setting": "M14", "result": "73.1 µM (inactive)"}, {"measurement": "GI50", "setting": "Malme-3M", "result": "51.4 µM (inactive)"}, {"measurement": "GI50", "setting": "K562", "result": "18.3 µM (inactive)"}, {"measurement": "GI50", "setting": "NCI-H522", "result": "7.64 µM (inactive)"}]}, {"smiles": "C[C@]12CC[C@@H]3c4cc(C=O)c(OCc5ccccc5)cc4CC[C@H]3[C@@H]1CCC2OCc1ccccc1", "note": "(stereo partly specified)", "values": [{"measurement": "GI50", "setting": "SF-539", "result": "> 100 µM (inactive)"}, {"measurement": "GI50", "setting": "CAKI-1", "result": "> 100 µM (inactive)"}, {"measurement": "GI50", "setting": "HL-60", "result": "> 100 µM (inactive)"}, {"measurement": "GI50", "setting": "HOP-62", "result": "> 100 µM (inactive)"}, {"measurement": "GI50", "setting": "SK-OV-3", "result": "> 100 µM (inactive)"}, {"measurement": "GI50", "setting": "HT-29", "result": "> 100 µM (inactive)"}, {"measurement": "GI50", "setting": "UO-31", "result": "> 100 µM (inactive)"}, {"measurement": "GI50", "setting": "OVCAR-4", "result": "> 100 µM (inactive)"}, {"measurement": "GI50", "setting": "BT-549", "result": "> 100 µM (inactive)"}, {"measurement": "GI50", "setting": "SF-295", "result": "> 100 µM (inactive)"}, {"measurement": "GI50", "setting": "NCI-H23", "result": "89.9 µM (inactive)"}, {"measurement": "GI50", "setting": "RPMI-8226", "result": "> 100 µM (inactive)"}, {"measurement": "GI50", "setting": "SNB-75", "result": "> 100 µM (inactive)"}, {"measurement": "GI50", "setting": "SN12C", "result": "> 100 µM (inactive)"}, {"measurement": "GI50", "setting": "M14", "result": "> 100 µM (inactive)"}, {"measurement": "GI50", "setting": "K562", "result": "> 100 µM (inactive)"}, {"measurement": "GI50", "setting": "NCI-H522", "result": "80 µM (inactive)"}]}]}
